ChEMBL document CHEMBL1201862, “PubChem BioAssay data set” (2004)
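Where inhibition never reached the appropriate level, the endpoint shown equals the highest concentration tested. Otherwise, values were interpolated linearly from a five-concentration, 48-hour dose response in 96-well plates. The concentration for 50% growth inhibition is given as GI50.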 Calls of active or inactive are those of the source. Rule as the data show it: active = GI50 up to about 1.1 µM and inactive = higher.

Experiments:
Experiment in all cases: NCI tumour cell line growth inhibition, 48 h
CCRF-CEM = system: CCRF-CEM
SF-539 = system: SF-539
SR = system: SR
NCI-H522 = system: NCI-H522
A549 = system: A549
HCT-116 = system: HCT-116
K562 = system: K562
RXF 393 = system: RXF 393
UO-31 = system: UO-31
DMS-273 = system: DMS-273
SNB-78 = system: SNB-78
M14 = system: M14
KM-20L2 = system: KM-20L2
DLD-1 = system: DLD-1
EKVX = system: EKVX
DMS-114 = system: DMS-114
NCI-H460 = system: NCI-H460
OVCAR-4 = system: OVCAR-4

SMILES | GI50 (CCRF-CEM) | GI50 (SF-539) | GI50 (SR) | GI50 (NCI-H522) | GI50 (A549) | GI50 (HCT-116) | GI50 (K562) | GI50 (RXF 393) | GI50 (UO-31) | GI50 (DMS-273) | GI50 (SNB-78) | GI50 (M14) | GI50 (KM-20L2) | GI50 (DLD-1) | GI50 (EKVX) | GI50 (DMS-114) | GI50 (NCI-H460) | GI50 (OVCAR-4)
CCOC(=O)N1CCc2cc(OC)c(OC)cc2/C1=C\c1ccc(OC)c(OC)c1 | 20.7 µM (inactive) | 23.2 µM (inactive) | 29.1 µM (inactive) | 25 µM (inactive) | 26.8 µM (inactive) | 21.9 µM (inactive) | > 10 µM (inactive) | 17.1 µM (inactive) | 21 µM (inactive) | 25.5 µM (inactive) | 35.7 µM (inactive) | > 10 µM (inactive) | 21.2 µM (inactive) | 37 µM (inactive) | 28.1 µM (inactive) | 35.3 µM (inactive) | – | –
CC1C=C(OC(=O)c2ccccc2)C(=O)C(n2cc(F)c(=O)n(C(=O)c3ccccc3)c2=O)O1 (stereo unspecified) | 18.1 µM (inactive) | 89.5 µM (inactive) | – | – | > 100 µM (inactive) | 32.1 µM (inactive) | 25.4 µM (inactive) | 33.3 µM (inactive) | 93.3 µM (inactive) | 37.4 µM (inactive) | 51.2 µM (inactive) | 51.3 µM (inactive) | 32.1 µM (inactive) | 41.6 µM (inactive) | > 100 µM (inactive) | 42.1 µM (inactive) | > 100 µM (inactive) | 52.2 µM (inactive)
CN(NC1OC(CO)C(O)C(O)C1O)c1ccccc1 (stereo unspecified) | > 100 µM (inactive) | – | > 100 µM (inactive) | 94.4 µM (inactive) | > 100 µM (inactive) | > 100 µM (inactive) | > 100 µM (inactive) | > 100 µM (inactive) | – | > 100 µM (inactive) | > 100 µM (inactive) | > 100 µM (inactive) | > 100 µM (inactive) | > 100 µM (inactive) | – | – | > 100 µM (inactive) | > 100 µM (inactive)
COC(OC)c1cccc2c1C(=O)CCC1(O)c3ccccc3C1C2 (stereo unspecified) | 44.9 µM (inactive) | > 100 µM (inactive) | > 100 µM (inactive) | > 100 µM (inactive) | > 100 µM (inactive) | 33.7 µM (inactive) | 55.5 µM (inactive) | – | > 100 µM (inactive) | > 100 µM (inactive) | > 100 µM (inactive) | > 100 µM (inactive) | – | > 100 µM (inactive) | > 100 µM (inactive) | 39.1 µM (inactive) | – | > 100 µM (inactive)
CCCCCCCCCCOC(=O)c1cc[n+](C)cc1 | 17.5 µM (inactive) | 16.3 µM (inactive) | 16.3 µM (inactive) | 16.1 µM (inactive) | 17 µM (inactive) | 18.3 µM (inactive) | 16.3 µM (inactive) | 19.7 µM (inactive) | 16.5 µM (inactive) | 17.3 µM (inactive) | 17.9 µM (inactive) | 18 µM (inactive) | – | 18.5 µM (inactive) | 16.7 µM (inactive) | 18 µM (inactive) | 21 µM (inactive) | 18.1 µM (inactive)
CC1(O)C(C)(O)C(C)(O)C1(C)O (stereo unspecified) | > 100 µM (inactive) | > 100 µM (inactive) | – | > 100 µM (inactive) | > 100 µM (inactive) | > 100 µM (inactive) | > 100 µM (inactive) | > 100 µM (inactive) | > 100 µM (inactive) | > 100 µM (inactive) | > 100 µM (inactive) | > 100 µM (inactive) | > 100 µM (inactive) | > 100 µM (inactive) | > 100 µM (inactive) | > 100 µM (inactive) | > 100 µM (inactive) | > 100 µM (inactive)
NCc1cccc(O)c1O | 55.3 µM (inactive) | – | > 100 µM (inactive) | > 100 µM (inactive) | > 100 µM (inactive) | 79.8 µM (inactive) | > 100 µM (inactive) | > 100 µM (inactive) | > 100 µM (inactive) | > 100 µM (inactive) | > 100 µM (inactive) | > 100 µM (inactive) | > 100 µM (inactive) | 90.4 µM (inactive) | > 100 µM (inactive) | > 100 µM (inactive) | > 100 µM (inactive) | > 100 µM (inactive)
CCCCNC(=O)OCC(COc1ccccc1OC)OC(=O)NCCCC (stereo unspecified) | > 100 µM (inactive) | > 100 µM (inactive) | – | 45.4 µM (inactive) | > 100 µM (inactive) | > 100 µM (inactive) | 68.5 µM (inactive) | > 100 µM (inactive) | 63.8 µM (inactive) | > 100 µM (inactive) | > 100 µM (inactive) | > 100 µM (inactive) | > 100 µM (inactive) | > 100 µM (inactive) | > 100 µM (inactive) | 78.7 µM (inactive) | > 100 µM (inactive) | > 100 µM (inactive)
CCOc1ccc(NC(=O)/C(=C\c2ccc(C)cc2)C(C)=O)cc1 | > 100 µM (inactive) | > 100 µM (inactive) | < 0.01 µM (active) | > 100 µM (inactive) | > 100 µM (inactive) | > 100 µM (inactive) | > 100 µM (inactive) | – | > 100 µM (inactive) | > 100 µM (inactive) | > 100 µM (inactive) | > 100 µM (inactive) | > 100 µM (inactive) | > 100 µM (inactive) | > 100 µM (inactive) | > 100 µM (inactive) | – | > 100 µM (inactive)
C1CCN2CC3CONC3C2C1 (stereo unspecified) | > 100 µM (inactive) | > 100 µM (inactive) | – | > 100 µM (inactive) | > 100 µM (inactive) | > 100 µM (inactive) | > 100 µM (inactive) | > 100 µM (inactive) | > 100 µM (inactive) | > 100 µM (inactive) | > 100 µM (inactive) | > 100 µM (inactive) | > 100 µM (inactive) | > 100 µM (inactive) | > 100 µM (inactive) | > 100 µM (inactive) | > 100 µM (inactive) | > 100 µM (inactive)
COC(=O)N(C(=O)OC)C(C(=O)O)C(C)C (stereo unspecified) | – | > 100 µM (inactive) | – | > 100 µM (inactive) | > 100 µM (inactive) | – | – | 65 µM (inactive) | > 100 µM (inactive) | > 100 µM (inactive) | > 100 µM (inactive) | > 100 µM (inactive) | > 100 µM (inactive) | > 100 µM (inactive) | > 100 µM (inactive) | > 100 µM (inactive) | > 100 µM (inactive) | > 100 µM (inactive)
CC1CC(=O)C2CC(CO)=CCCC2C1(C)CC/C(=C/CO)CO (stereo unspecified) | > 100 µM (inactive) | – | – | 87.9 µM (inactive) | > 100 µM (inactive) | > 100 µM (inactive) | > 100 µM (inactive) | > 100 µM (inactive) | > 100 µM (inactive) | > 100 µM (inactive) | > 100 µM (inactive) | > 100 µM (inactive) | – | > 100 µM (inactive) | > 100 µM (inactive) | > 100 µM (inactive) | > 100 µM (inactive) | –
COc1ccc2c(=O)c(C)c(-c3ccccc3)oc2c1CN(C)C [DIMEFLINE] | > 100 µM (inactive) | > 100 µM (inactive) | > 100 µM (inactive) | > 100 µM (inactive) | > 100 µM (inactive) | > 100 µM (inactive) | > 100 µM (inactive) | > 100 µM (inactive) | > 100 µM (inactive) | > 100 µM (inactive) | > 100 µM (inactive) | > 100 µM (inactive) | 97.7 µM (inactive) | > 100 µM (inactive) | – | – | > 100 µM (inactive) | > 100 µM (inactive)
